Reference: US10011591B2, “Crystalline form of afatinib dimaleate” (Sun Pharmaceutical Industries Limited, priority 2014, dated 2018)

Assay: Storage stability towards polymorphic conversion, triple layer package
Type: physicochemical
Conditions: 25° C. ±2° C. and 60% ±5% relative humidity for two months under triple layer package
From the text: The term “triple layer package,” as used herein, refers to the afatinib dimaleate being packed in a low density polyethylene (LDPE) pouch, then inserted and heat sealed under vacuum in a bag with a mixture of polyester/LDPE with silica sachet as a desiccant, and then further inserted and heat sealed under vacuum into an outer bag with a mixture of polyester film/aluminum foil/polyester LDPE.

CN(C)C/C=C/C(=O)Nc1cc2c(Nc3ccc(F)c(Cl)c3)ncnc2cc1O[C@H]1CCOC1.O=C(O)/C=C\C(=O)O.O=C(O)/C=C\C(=O)O [crystalline Form I of afatinib dimaleate, 2-butenamide, N-[4-[(3-chloro-4-fluorophenyl)amino]-7-[[(3S)-tetrahydro-3-furanyl]oxy]-6-quinazolinyl]-4-(dimethylamino)-,(2E)-, (2Z)-2-butenedioate (1:2)]
polymorphic form stability on storage (conversion to any other form): not converted to any other form of afatinib dimaleate
